Publication PMC12249541, “Novel Derivatives of 3-Amino-4-hydroxy-benzenesulfonamide: Synthesis, Binding to Carbonic Anhydrases, and Activity in Cancer Cell 2D and 3D Cultures” (International Journal of Molecular Sciences, 2025)
“Also recorded” adds a separate entry of the source. Like-named read-outs stand apart in the source and are kept apart here. Blank lines part the entries; values can stand above or below the molecule they belong to.

Tests used:
CAII = CAII (Homo sapiens, UniProt P00918); assay: Fluorescent thermal shift assay (FTSA), CAII; format: binding; details: compared with compound 24
[1] = tested on: human foreskin fibroblasts (HFs); assay: MTT cell viability assay, fibroblasts; format: cell-based; details: Fibroblast, 72 h, read-out: EC50, HF
CAI = CAI (Homo sapiens, UniProt P00915); assay: Fluorescent thermal shift assay (FTSA), CAI; format: binding
CAI, sequence (P00915 whole entry): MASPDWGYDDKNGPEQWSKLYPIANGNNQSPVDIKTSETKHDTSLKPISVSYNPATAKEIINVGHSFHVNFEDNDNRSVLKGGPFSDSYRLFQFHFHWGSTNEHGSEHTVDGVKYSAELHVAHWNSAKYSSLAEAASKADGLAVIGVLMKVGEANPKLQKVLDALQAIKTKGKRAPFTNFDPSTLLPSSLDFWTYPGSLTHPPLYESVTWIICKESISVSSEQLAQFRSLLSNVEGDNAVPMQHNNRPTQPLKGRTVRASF

[2] = tested on: prostate adenocarcinoma PPC-1; assay: MTT cell viability assay, PPC-1; format: cell-based; details: Homo sapiens, read-out: EC50, PPC-1
[3] = tested on: U-87, MDA-MB-231, PPC-1 cell lines; assay: MTT cell viability assay, statements over several cell lines; format: cell-based, human; details: for viability at 100 µM / EC50: Homo sapiens; for EC50: read-out: EC50 values, range over different cell lines
human glioblastoma U-87 = assay: MTT cell viability assay, U-87; format: cell-based; details: 72 h, read-out: EC50, U-87
[4] = tested on: triple-negative breast cancer MDA-MB-231; assay: MTT cell viability assay, MDA-MB-231; format: cell-based, human; details: read-out: EC50, MDA-MB-231
CAIX = CAIX (Homo sapiens, UniProt Q16790); assay: Fluorescent thermal shift assay (FTSA), CAIX; format: binding; details: compared with compound 10
CAVA = CAVA (Homo sapiens, UniProt P35218); assay: Fluorescent thermal shift assay (FTSA), CAVA; format: binding; details: compared with compound 10
CAVA, sequence (P35218 39-305): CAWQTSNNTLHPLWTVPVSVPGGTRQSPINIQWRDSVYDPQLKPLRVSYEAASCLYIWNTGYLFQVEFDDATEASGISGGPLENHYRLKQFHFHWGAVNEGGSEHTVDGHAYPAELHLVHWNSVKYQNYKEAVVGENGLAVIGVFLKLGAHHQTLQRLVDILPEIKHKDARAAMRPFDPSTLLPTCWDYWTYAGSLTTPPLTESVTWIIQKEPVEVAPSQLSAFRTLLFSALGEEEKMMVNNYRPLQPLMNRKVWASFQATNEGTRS

[5] = tested on: recombinant human carbonic anhydrases (CAs); assay: FTSA, statements over several CA isoenzymes; format: binding; details: up to 200 µM
PPC-1 spheroids = assay: 3D culture (cancer spheroids), PPC-1; format: cell-based, human; details: 10 µM
MDA-MB-231 spheroids = assay: 3D culture (cancer spheroids), MDA-MB-231; format: cell-based, human; details: 10 µM
U-87 spheroids = assay: 3D culture (cancer spheroids), U-87; format: cell-based, human; details: 10 µM
[6] = 100 μM, 72 h, MTT, at least one of the tested cell lines
[7] = Homo sapiens, MDA-MB-231, MTT, 72 h
[8] = MTT at the end of the experiment
[9] = cancer cells and fibroblasts 1:1, vs control

- melting temperature (Tm) of CAI with increasing compound concentration (CAI; 0–200 µM of compound, FTSA): 56 to 66 °C
- EC50 ([2]; PPC-1, MTT, 72 h): 137 ± 15.5 µM
- EC50 (human glioblastoma U-87; MTT): 137 ± 15.4 µM
- EC50 [4, 7]: 148 ± 22.5 µM
Compound: NS(=O)(=O)c1ccc(O)c(NCC(=O)c2ccc(Cl)cc2)c1 [Compound 12, 4-Hydroxy-3-((2-(4-chlorophenyl)-2-oxoethyl)amino)benzenesulfonamide]
- EC50 ([1]; MTT): 166 ± 7 µM
- viability at 100 µM [3, 6]: < 20%

- fold increase in affinity, CAI (CAI; compared with compound 10): 60 ×
- fold increase in affinity, CAIX (CAIX): 4.5 ×
- fold increase in affinity, CAVA (CAVA): 9 ×
Compound: NS(=O)(=O)c1ccc(O)c(NCC(=O)c2cccc3ccccc23)c1 [Compound 14, 4-Hydroxy-3-((2-(naphthalen-1-yl)-2-oxoethyl)amino)benzenesulfonamide]
- cell viability [3, 6]: did not show high cytotoxicity

- EC50 ([2]; PPC-1, MTT, 72 h): 108 ± 17.7 µM
- EC50 (human glioblastoma U-87; MTT): 105 ± 6 µM
- EC50 [4, 7]: 127 ± 20.8 µM
Compound: NS(=O)(=O)c1ccc(O)c(NCC(=NN=C(CNc2cc(S(N)(=O)=O)ccc2O)c2ccccc2)c2ccccc2)c1 [Compound 18, 3,3′-((Hydrazine-1,2-diylidenebis(2-phenylethan-1-yl-2-ylidene))bis(azanediyl))bis(4-hydroxybenzenesulfonamide)]
- EC50 ([1]; MTT): 134 ± 11.1 µM
- viability at 100 µM [3, 6]: < 20%

The next lines start with the molecule.

Compound: COC(=O)CCNc1cc(S(N)(=O)=O)ccc1O [Compound 25, Methyl 3-((2-hydroxy-5-sulfamoylphenyl)amino)propanoate]
- fold increase in affinity, CAII (CAII): ~40 ×

Compound: CCOc1ccc(S(=O)(=O)N(CC)CC)cc1-n1cc(-c2ccccc2)nc1SCC [Compound 23, 4-Ethoxy-N,N-diethyl-3-(2-(ethylthio)-4-phenyl-1H-imidazol-1-yl)benzenesulfonamide]
- binding to CA isoenzymes (in words) [5]: lost its affinity; also recorded: abolished the ability

Compound: NS(=O)(=O)c1ccc(O)c(N=Cc2ccc([N+](=O)[O-])s2)c1 [Compound 9, 4-Hydroxy-3-(((5-nitrothiophen-2-yl)methylene)amino)benzenesulfonamide]
- EC50 [1]: 13.8 ± 5.2 µM
- EC50 ([2]; PPC-1, 72 h): 13 ± 3.5 µM
- EC50 ([3]; 72 h): 13 to 23.3 µM
- viability at 100 µM [3, 6]: < 20%
- EC50 (human glioblastoma U-87): 23.3 ± 2.9 µM
- EC50 ([4]; Homo sapiens, MDA-MB-231, 72 h): 14 ± 3.2 µM

Compound: NS(=O)(=O)c1ccc(NC(=O)Nc2ccc(F)cc2)cc1 [Compound U-104, reference compound]
- EC50 ([4]; MTT, 72 h): 240 ± 18 µM

Compound: CC(=O)Nc1cc(S(=O)(=O)NC(C)=O)ccc1O [Compound 27, N -((3-Acetamido-4-hydroxyphenyl)sulfonyl)acetamide]
- binding to CA isoenzymes (in words) [5]: did not interact; also recorded: abolished the ability

Compound: CCOc1ccc(S(=O)(=O)N(CC)CC)cc1-n1cc(-c2ccccc2)n(CC)c1=O [Compound 21, 4-Ethoxy-N,N-diethyl-3-(3-ethyl-2-oxo-4-phenyl-2,3-dihydro-1H-imidazol-1-yl)benzenesulfonamide]
- viability of cells in spheroids, PPC-1 (PPC-1 spheroids; [8]): reduced the viability
- spheroid growth / size, PPC-1 (PPC-1 spheroids; [9]): no statistically significant effect
- viability of cells in spheroids, MDA-MB-231 (MDA-MB-231 spheroids; [8]): reduced the viability
- spheroid growth / size, MDA-MB-231 (MDA-MB-231 spheroids; [9]): reduced the growth
- EC50 ([1]; MTT): 259 ± 8.4 µM
- binding to CA isoenzymes (in words) [5]: completely lost its ability to bind; also recorded: abolished the ability; also recorded: did not bind any of the tested CAs
- viability of cells in spheroids, U-87 (U-87 spheroids; [8]): reduced the viability
- spheroid growth / size, U-87 (U-87 spheroids; [9]): reduced the growth
- EC50 ([2]; PPC-1, MTT, 72 h): 43.7 ± 15 µM
- viability at 100 µM [3, 6]: < 20%
- EC50 ([3]; MTT, 72 h): 43.7 to 148 µM
- selectivity for cancer cells over fibroblasts ([3]; from EC50 values, cancer cell lines vs HF): 1.5–6 times
- EC50 (human glioblastoma U-87; MTT): 148 ± 10.4 µM
- EC50 [4, 7]: 57.3 ± 15 µM
